Reference: patent publication US12371454B2, “Cyclic peptide compound having Kras inhibitory action” (priority 2019, dated 2025)
Starred links: 1 amine or outer side, 2 acyl side, 3 side chain; linkers in the order of their positions; H or OH if unused. Positions of bridges follow the written chain, without caps; N, C: chain ends. Non-standard residues stand in square brackets, D forms with d. Residues, ends and D or L forms follow the SMILES beside them. *: point of attachment. hPhe(3,5-F2-4-CF3) = N[C@@H](CCc1cc(F)c(C(F)(F)F)c(F)c1)C(=O)O; hPhe(3-Cl-4-CF3) = N[C@@H](CCc1ccc(C(F)(F)F)c(Cl)c1)C(=O)O; hPhe(3-F,4-CF3) = N[C@@H](CCc1ccc(C(F)(F)F)c(F)c1)C(=O)O; NMePhe(4-CF3) = CN[C@@H](Cc1ccc(C(F)(F)F)cc1)C(=O)O; NEtPhe(4-Cl) = CCN[C@@H](Cc1ccc(Cl)cc1)C(=O)O; NMeAbu(4,4,4-F3) = CN[C@@H](CC(F)(F)F)C(=O)O; NMePhe(3-Me) = CN[C@@H](Cc1cccc(C)c1)C(=O)O; NMePhe(4-Me) = CN[C@@H](Cc1ccc(C)cc1)C(=O)O; NMedβ3hAla = C[C@H](CC(=O)[*:2])N(C)[*:1]; NMeAla(cPent) = CN[C@@H](CC1CCCC1)C(=O)O; NMePhe(2-F) = CN[C@@H](Cc1ccccc1F)C(=O)O; dβ3hPip = O=C(C[C@H]1CCCCN1[*:1])[*:2]; NMeCha = CN[C@@H](CC1CCCCC1)C(=O)O; NMeChg = CN[C@H](C(=O)O)C1CCCCC1; NMeI = CC[C@H](C)[C@H](NC)C(=O)O; NMeD = CN[C@@H](CC(=O)O)C(=O)O; NMeL = CN[C@@H](CC(C)C)C(=O)O; NEtAla = CCN[C@@H](C)C(=O)O; NMeNva = CCC[C@H](NC)C(=O)O; NMeV = CN[C@H](C(=O)O)C(C)C; d(β3hA) = C[C@@H](N)CC(=O)O; NMeS = CN[C@@H](CO)C(=O)O; Morpholide = C1CN(*)CCO1; NMeA = CN[C@@H](C)C(=O)O; Piperidide = C1CCN(*)CC1; Pyrrolidide = C1CCN(*)C1; Ac5c = NC1(C(=O)O)CCCC1; Aze = O=C(O)[C@@H]1CCN1; Ac4c = NC1(C(=O)O)CCC1; Cyclobutyl = C1CC(*)C1; Sar = CNCC(=O)O

Experiments:
[1] = biological target: T1, Kras and SOS1 (biotin-tagged human Kras loaded with GDP, His-tagged human SOS1) (Homo sapiens, UniProt P01116, G12D); experiment: Protein-protein interaction inhibition between Kras and SOS1 (KrasGl2D-SOS PPI) using AlphaScreen; format: binding; details: AlphaScreen; biotin-tagged human Kras loaded with GDP, His-tagged human SOS1; read-out: KRAS G12D-SOS PPI IC50
T1 construct: made in house; host or cells: E. coli (stated for Kras only)
Summary of the method: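 AlphaScreen format: Ni donor beads capture His-SOS1, streptavidin acceptor beads capture biotinylated Kras (E. coli-expressed, GDP-loaded post-purification). Excite 680 nm, read 520-620 nm.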

[2] = system: Human pancreatic cancer cell line AsPC-1; experiment: Measurement of AsPC-1 cell growth inhibition (AsPC-1 CGI); format: cell-based; details: 96 h
Summary of the method: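 AsPC-1 cells in 15% FBS RPMI-1640 were exposed to test compound for 96 hours at 37° C, with CellTiter-Glo as endpoint.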

T1 sequence (P01116 1-188 isoform P01116-2 G12D): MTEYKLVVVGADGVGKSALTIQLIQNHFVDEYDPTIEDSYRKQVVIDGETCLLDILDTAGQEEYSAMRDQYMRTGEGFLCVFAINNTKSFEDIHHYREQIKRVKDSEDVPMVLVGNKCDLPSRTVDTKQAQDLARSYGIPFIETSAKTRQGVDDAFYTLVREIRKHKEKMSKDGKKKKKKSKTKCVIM

CC[C@H](C)[C@@H]1NC(=O)[C@H](CC(F)(F)F)N(C)C(=O)C[C@@H](C(=O)N2CCOCC2)N(C)C(=O)[C@H](C2CCCCC2)N(C)C(=O)C2(CCCC2)NC(=O)[C@@H]2CCCN2C(=O)[C@H](CCc2ccc(C(F)(F)F)c(Cl)c2)NC(=O)CN(C)C(=O)[C@H](CC2CCCCC2)N(C)C(=O)CN(C)C(=O)CN(C)C1=O [Compound 774] ([NMeAbu(4,4,4-F3)]I[Sar][Sar][NMeCha][Sar][hPhe(3-Cl-4-CF3)]P[Ac5c][NMeChg][NMeD]-Morpholide; lactam N-11)
IC50 [1]: 0.55 nM | IC50 [2]: 20 to 50 nM

CC[C@H](C)[C@@H]1NC(=O)[C@H](C)N(C)C(=O)C[C@@H](C(=O)N2CCCCC2)N(C)C(=O)[C@H](C(C)C)N(C)C(=O)C2(CCCC2)NC(=O)[C@@H]2CCCN2C(=O)[C@H](CCc2ccc(C(F)(F)F)c(Cl)c2)NC(=O)CN(C)C(=O)[C@H](CC2CCCCC2)N(C)C(=O)CN(C)C(=O)CN(C)C1=O [Compound 360] ([NMeA]I[Sar][Sar][NMeCha][Sar][hPhe(3-Cl-4-CF3)]P[Ac5c][NMeV][NMeD]-Piperidide; lactam N-11)
IC50 [1]: 2.8 nM | IC50 [2]: 100 to 500 nM

CCC[C@H]1C(=O)NC2(CCCC2)C(=O)N(C)[C@@H](C2CCCCC2)C(=O)N(C)[C@H](C(=O)N2CCCCC2)CC(=O)N(C)[C@@H](CC(C)C)C(=O)N[C@@H]([C@@H](C)CC)C(=O)N(C)CC(=O)N2CC[C@H]2C(=O)N(C)[C@@H](CC2CCCCC2)C(=O)N(C)CC(=O)N[C@@H](CCc2ccc(C(F)(F)F)c(Cl)c2)C(=O)N1C [Compound 478] ([NMeL]I[Sar][Aze][NMeCha][Sar][hPhe(3-Cl-4-CF3)][NMeNva][Ac5c][NMeChg][NMeD]-Piperidide; lactam N-11)
IC50 [1]: 3 nM | IC50 [2]: 100 to 500 nM

CC[C@H](C)[C@@H]1NC(=O)[C@H](CC(C)C)N(C)C(=O)C[C@@H](C(=O)N2CCCCC2)N(C)C(=O)[C@H](CC(C)C)N(C)C(=O)C2(CCCC2)NC(=O)[C@@H]2CCCN2C(=O)[C@H](CCc2ccc(C(F)(F)F)c(F)c2)NC(=O)CN(C)C(=O)[C@H](Cc2ccc(Cl)cc2)N(CC)C(=O)CN(C)C(=O)CN(C)C1=O [Compound 328] ([NMeL]I[Sar][Sar][NEtPhe(4-Cl)][Sar][hPhe(3-F,4-CF3)]P[Ac5c][NMeL][NMeD]-Piperidide; lactam N-11)
IC50 [1]: 94 nM | IC50 [2]: 100 to 500 nM

CC[C@H](C)[C@@H]1NC(=O)[C@H](CC(C)C)N(C)C(=O)C[C@@H](C)NC(=O)[C@H](CC(C)C)N(C)C(=O)C2(CCCC2)NC(=O)[C@@H]2CCCN2C(=O)[C@H](CCc2cc(F)c(C(F)(F)F)c(F)c2)NC(=O)CN(C)C(=O)[C@H](CC2CCCCC2)N(C)C(=O)CN(C)C(=O)CN(C)C1=O [Compound 364] (cyclo([Ac5c][NMeL][d(β3hA)][NMeL]I[Sar][Sar][NMeCha][Sar][hPhe(3,5-F2-4-CF3)]P))
IC50 [1]: 9.7 nM | IC50 [2]: 100 to 500 nM

CC[C@H](C)[C@@H]1NC(=O)[C@H](CC(C)C)N(C)C(=O)C[C@@H](C)N(C)C(=O)[C@H](C(C)C)N(C)C(=O)C2(CCC2)NC(=O)[C@@H]2CCCN2C(=O)[C@H](CCc2ccc(C(F)(F)F)c(Cl)c2)NC(=O)CN(C)C(=O)[C@H](CC2CCCCC2)N(C)C(=O)CN(C)C(=O)CN(C)C1=O [Compound 837] (cyclo([Ac4c][NMeV][NMedβ3hAla][NMeL]I[Sar][Sar][NMeCha][Sar][hPhe(3-Cl-4-CF3)]P))
IC50 [1]: 6 nM | IC50 [2]: 50 to 100 nM

CC[C@H](C)[C@@H]1NC(=O)[C@H](CC2CCCC2)N(C)C(=O)C[C@@H](C(=O)N2CCCCC2)N(C)C(=O)[C@H](C2CCCCC2)N(C)C(=O)C2(CCCC2)NC(=O)[C@@H]2CCCN2C(=O)[C@H](CCc2ccc(C(F)(F)F)c(Cl)c2)NC(=O)CN(C)C(=O)[C@H](CC2CCCCC2)N(C)C(=O)CN(C)C(=O)CN(C)C1=O [Compound 1663] ([NMeAla(cPent)]I[Sar][Sar][NMeCha][Sar][hPhe(3-Cl-4-CF3)]P[Ac5c][NMeChg][NMeD]-Piperidide; lactam N-11)
IC50 [1]: 1.6 nM | IC50 [2]: 100 to 500 nM

CC[C@H](C)[C@@H]1NC(=O)[C@H](CC(C)C)N(C)C(=O)C[C@@H](C)N(C)C(=O)[C@H](C(C)C)N(C)C(=O)C2(CCCC2)NC(=O)[C@@H]2CCCN2C(=O)[C@H](CCc2ccc(C(F)(F)F)c(Cl)c2)NC(=O)CN(C)C(=O)[C@H](Cc2cccc(C)c2)N(C)C(=O)CN(C)C(=O)CN(C)C1=O [Compound 1570] (cyclo([Ac5c][NMeV][NMedβ3hAla][NMeL]I[Sar][Sar][NMePhe(3-Me)][Sar][hPhe(3-Cl-4-CF3)]P))
IC50 [1]: 4.3 nM | IC50 [2]: 50 to 100 nM

CC[C@H](C)[C@@H]1NC(=O)[C@H](CC(C)C)N(C)C(=O)C[C@H]2CCCCN2C(=O)[C@H](C(C)C)N(C)C(=O)C2(CCCC2)NC(=O)[C@@H]2CCCN2C(=O)[C@H](CCc2ccc(C(F)(F)F)c(Cl)c2)NC(=O)CN(C)C(=O)[C@H](CC2CCCCC2)N(C)C(=O)CN(C)C(=O)CN(C)C1=O [Compound 747] (cyclo([Ac5c][NMeV][dβ3hPip][NMeL]I[Sar][Sar][NMeCha][Sar][hPhe(3-Cl-4-CF3)]P))
IC50 [1]: 11 nM | IC50 [2]: 100 to 500 nM

CC[C@H](C)[C@@H]1NC(=O)[C@H](CC2CCCCC2)N(C)C(=O)C[C@@H](C(=O)N2CCCCC2)N(C)C(=O)[C@H](C2CCCCC2)N(C)C(=O)C2(CCCC2)NC(=O)[C@@H]2CCCN2C(=O)[C@H](CCc2ccc(C(F)(F)F)c(Cl)c2)NC(=O)CN(C)C(=O)[C@H](CC2CCCCC2)N(C)C(=O)CN(C)C(=O)CN(C)C1=O [Compound 983] ([NMeCha]I[Sar][Sar][NMeCha][Sar][hPhe(3-Cl-4-CF3)]P[Ac5c][NMeChg][NMeD]-Piperidide; lactam N-11)
IC50 [1]: 1.8 nM | IC50 [2]: 100 to 500 nM

CC[C@H](C)[C@@H]1NC(=O)[C@H](CC(C)C)N(C)C(=O)C[C@@H](C(=O)N2CCCC2)N(C)C(=O)[C@H](C(C)C)N(C)C(=O)C2(CCCC2)NC(=O)[C@@H]2CCCN2C(=O)[C@H](CCc2ccc(C(F)(F)F)c(Cl)c2)NC(=O)CN(C)C(=O)[C@H](CC2CCCC2)N(C)C(=O)CN(C)C(=O)CN(C)C1=O [Compound 1699] ([NMeL]I[Sar][Sar][NMeAla(cPent)][Sar][hPhe(3-Cl-4-CF3)]P[Ac5c][NMeV][NMeD]-Pyrrolidide; lactam N-11)
IC50 [1]: 1.1 nM | IC50 [2]: 100 to 500 nM

CC[C@H](C)[C@@H]1NC(=O)[C@H](CC(C)C)N(C)C(=O)C[C@@H](C(=O)N2CCCCC2)N(C)C(=O)[C@H](C2CCCCC2)N(C)C(=O)C2(CCCC2)NC(=O)[C@@H]2CCCN2C(=O)[C@H](CCc2ccc(C(F)(F)F)c(Cl)c2)NC(=O)CN(C)C(=O)[C@H](COC2CCC2)N(C)C(=O)CN(C)C(=O)CN(C)C1=O [Compound 309] ([NMeL]I[Sar][Sar][NMeS](Cyclobutyl)[Sar][hPhe(3-Cl-4-CF3)]P[Ac5c][NMeChg][NMeD]-Piperidide; lactam N-11)
IC50 [1]: 0.75 nM | IC50 [2]: 100 to 500 nM

CC[C@H](C)[C@@H]1NC(=O)[C@H](CC(C)C)N(C)C(=O)C[C@@H](C(=O)N(C)C)N(C)C(=O)[C@H]([C@@H](C)CC)N(C)C(=O)C2(CCCC2)NC(=O)[C@H](Cc2ccccc2F)N(C)C(=O)[C@H](CCc2ccc(C(F)(F)F)c(Cl)c2)NC(=O)CN(C)C(=O)[C@H](Cc2ccc(C)cc2)N(C)C(=O)[C@@H]2CCN2C(=O)[C@H](C)N(C)C1=O [Compound 616] ([NMeL]I[NMeA][Aze][NMePhe(4-Me)][Sar][hPhe(3-Cl-4-CF3)][NMePhe(2-F)][Ac5c][NMeI][NMeD]-NMe2; lactam N-11)
IC50 [1]: 3.9 nM | IC50 [2]: 50 to 100 nM

CC[C@H](C)[C@@H]1NC(=O)[C@H](CC(C)C)N(C)C(=O)C[C@@H](C(=O)N2CCCCC2)N(C)C(=O)[C@H](C(C)C)N(C)C(=O)C2(CCCC2)NC(=O)[C@@H]2CCCN2C(=O)[C@H](CCc2ccc(C(F)(F)F)c(Cl)c2)NC(=O)CN(C)C(=O)[C@H](Cc2ccc(C(F)(F)F)cc2)N(C)C(=O)CN(C)C(=O)CN(C)C1=O [Compound 1629] ([NMeL]I[Sar][Sar][NMePhe(4-CF3)][Sar][hPhe(3-Cl-4-CF3)]P[Ac5c][NMeV][NMeD]-Piperidide; lactam N-11)
IC50 [1]: 2.5 nM | IC50 [2]: 50 to 100 nM

CC[C@H](C)[C@@H]1NC(=O)[C@H](CC(C)C)N(C)C(=O)C[C@@H](C(=O)N2CCCCC2)N(C)C(=O)[C@H](C2CCCCC2)N(C)C(=O)C2(CCCC2)NC(=O)[C@@H]2CCCN2C(=O)[C@H](CCc2ccc(C(F)(F)F)c(Cl)c2)NC(=O)CN(C)C(=O)[C@H](CC2CCCC2)N(C)C(=O)CN(C)C(=O)CN(C)C1=O [Compound 1689] ([NMeL]I[Sar][Sar][NMeAla(cPent)][Sar][hPhe(3-Cl-4-CF3)]P[Ac5c][NMeChg][NMeD]-Piperidide; lactam N-11)
IC50 [1]: 1.1 nM | IC50 [2]: 50 to 100 nM

CC[C@H](C)[C@@H]1NC(=O)[C@H](C)N(CC)C(=O)C[C@@H](C)N(C)C(=O)[C@H](C(C)C)N(C)C(=O)C2(CCCC2)NC(=O)[C@@H]2CCCN2C(=O)[C@H](CCc2ccc(C(F)(F)F)c(Cl)c2)NC(=O)CN(C)C(=O)[C@H](CC2CCCCC2)N(C)C(=O)CN(C)C(=O)CN(C)C1=O [Compound 264] (cyclo([Ac5c][NMeV][NMedβ3hAla][NEtAla]I[Sar][Sar][NMeCha][Sar][hPhe(3-Cl-4-CF3)]P))
IC50 [1]: 4.5 nM | IC50 [2]: 100 to 500 nM
